Measurements reported in PMC4192545, “Suramin Inhibits Hsp104 ATPase and Disaggregase Activity” (PLoS ONE, 2014).

Tests used:
[1] = molecular target: T1, ClpB (Escherichia coli, UniProt P63284); experiment: ClpB luciferase reactivation assay; assay type: biochemical, E. coli
T1 construct: made in house
Procedure: (§1) Luciferase reactivation was performed as described, [37]. To assemble aggregates, firefly luciferase (50 µM) in luciferase refolding buffer (LRB, 25 mM HEPES-KOH, 7.4, 150 mM KAOc, 10 mM MgAOc, 10 mM DTT) with 6 M urea was incubated at 30°C for 20 min. Luciferase was then rapidly diluted 100-fold into LRB, divided into 100 µL aliquots, snap frozen in liquid N2, and stored at −80°C. For reactivation assays, aggregated luciferase (50 nM) was incubated with Hsp104 (1 µM hexamer), plus 2.6 mM ATPγS, 2.6 mM ATP and an ATP regeneration system (1 mM creatine phosphate, 0.25 µM creatine kinase (Roche Applied Science)) for 90 minutes at 25°C. Luciferase assay system was purchased from Promega. Luciferase activity was assessed by luminescence measured on a Safire^2 microplate reader (Tecan, Männedorf, Switzerland). The half maximal inhibitory concentration (IC50) was calculating by fitting luciferase-refolding data at different Suramin concentrations with Prism (GraphPad Software, Inc., La Jolla, CA).
(A) ClpB (0.25 µM monomer) was incubated for 10 min with ATP (1 mM) and varying concentrations of Suramin. The amount of Pi produced was measured by absorbance at 635 nm. Absorbance values were normalized to the absorbance produced by ClpB in the absence of inhibitor. Values represent mean ±S.D. (n = 6). (B) Urea-denatured firefly luciferase aggregates were incubated for 90 min at 25°C with ClpB (1 µM hexamer) in the presence of 1∶1 mixtures of ATP and ATPγS and varying concentrations of Suramin. Reactivation of luciferase was then determined by luminescence and converted to % WT ClpB activity (activity of 1 µM WT ClpB in the presence of ATP and ATPγS). Values represent mean ±S.D. (n = 6–12). TEXT PRINTED IN THE PICTURE: (A) Suramin: Normalized ATPase Activity: 1.03 ([Suramin] μM: 0); Normalized ATPase Activity: 0.76 ([Suramin] μM: 100); Normalized ATPase Activity: 0.78 ([Suramin] μM: 50); Normalized ATPase Activity: 0.60 ([Suramin] μM: 25); Normalized ATPase Activity: 0.59 ([Suramin] μM: 10); Normalized ATPase Activity: 0.65 ([Suramin] μM: 5); Normalized ATPase Activity: 1.01 ([Suramin] μM: 1) | (B) Suramin: Normalized Luciferase Refolding Activity: 1.00 ([Suramin] μM: 0); Normalized Luciferase Refolding Activity: 0.16 ([Suramin] μM: 100); Normalized Luciferase Refolding Activity: 1.03 ([Suramin] μM: 50); Normalized Luciferase Refolding Activity: 1.39 ([Suramin] μM: 25); Normalized Luciferase Refolding Activity: 2.23 ([Suramin] μM: 10); Normalized Luciferase Refolding Activity: 1.82 ([Suramin] μM: 5); Normalized Luciferase Refolding Activity: 1.02 ([Suramin] μM: 1)

[2] = molecular target: T2, Hsp104^A503V (Saccharomyces cerevisiae, UniProt P31539, A503V); experiment: ATPase assay, Hsp104^A503V; assay type: biochemical, yeast
T2 construct: made in house; host or cells: E. coli BL21-DE3 RIL
Procedure: Wild-type or mutant Hsp104 (0.25 µM monomer) in ATPase buffer (20 mM HEPES-KOH pH 7.4, 20 mM NaCl and 10 mM MgCl2) was incubated for 60 or 10 min at 25°C in the presence of ATP (1 mM) as noted. ATPase activity was assessed by the release of inorganic phosphate determined by using a malachite green phosphate detection kit (Innova).
(§2) Figure 7 Hsp104 variants respond differently to Suramin than Hsp104^WT. (A) Hsp104 variants (0.25 µM monomer) were incubated for 10 min with ATP (1 mM) and varying concentrations of Suramin. The amount of Pi produced was measured by absorbance at 635 nm. Absorbance values were normalized to the absorbance produced by each Hsp104 variant in the absence of inhibitor. Values represent mean ±S.D. (n = 6). (B) Urea-denatured firefly luciferase aggregates were incubated for 90 min at 25°C with Hsp104 variants (1 µM hexamer) plus 1∶1 mixtures of ATP and ATPγS (or ATP alone) and varying concentrations of Suramin. Luciferase reactivation was then determined and normalized to untreated disaggregase activity for each variant in the presence of ATPγS: ATP (or ATP alone). 1∶1 mixtures of ATP and ATPγS were used for Hsp104^WT and Hsp104^T317A, while ATP alone was used for Hsp104^A503V and Hsp104^N728A. Values represent mean ±S.D. (n = 6–12).

[3] = molecular target: T2, Hsp104^A503V; experiment: biochemical; assay type: biochemical, yeast
Procedure: as §1
as §2, with “(A)” for “Figure 7 Hsp104 variants respond differently to Suramin than Hsp104^WT. (A)”

[4] = molecular target: T3, Hsp104^N728A (Saccharomyces cerevisiae, UniProt P31539, N728A); experiment: biochemical; assay type: biochemical, yeast; conditions: for Hsp104^N728A refolding activity: ATP alone
T3 construct: made in house; host or cells: E. coli BL21-DE3 RIL
Procedure: as §1
as §2, with “(A)” for “Figure 7 Hsp104 variants respond differently to Suramin than Hsp104^WT. (A)”

[5] = molecular target: T4, Hsp104^T317A (Saccharomyces cerevisiae, UniProt P31539, T317A); experiment: Luciferase reactivation, Hsp104^T317A; assay type: biochemical, yeast; conditions: ATP:ATPγS 1:1
T4 construct: made in house; host or cells: E. coli BL21-DE3 RIL
Procedure: as §1, §2

T4 sequence (P31539 whole entry T317A): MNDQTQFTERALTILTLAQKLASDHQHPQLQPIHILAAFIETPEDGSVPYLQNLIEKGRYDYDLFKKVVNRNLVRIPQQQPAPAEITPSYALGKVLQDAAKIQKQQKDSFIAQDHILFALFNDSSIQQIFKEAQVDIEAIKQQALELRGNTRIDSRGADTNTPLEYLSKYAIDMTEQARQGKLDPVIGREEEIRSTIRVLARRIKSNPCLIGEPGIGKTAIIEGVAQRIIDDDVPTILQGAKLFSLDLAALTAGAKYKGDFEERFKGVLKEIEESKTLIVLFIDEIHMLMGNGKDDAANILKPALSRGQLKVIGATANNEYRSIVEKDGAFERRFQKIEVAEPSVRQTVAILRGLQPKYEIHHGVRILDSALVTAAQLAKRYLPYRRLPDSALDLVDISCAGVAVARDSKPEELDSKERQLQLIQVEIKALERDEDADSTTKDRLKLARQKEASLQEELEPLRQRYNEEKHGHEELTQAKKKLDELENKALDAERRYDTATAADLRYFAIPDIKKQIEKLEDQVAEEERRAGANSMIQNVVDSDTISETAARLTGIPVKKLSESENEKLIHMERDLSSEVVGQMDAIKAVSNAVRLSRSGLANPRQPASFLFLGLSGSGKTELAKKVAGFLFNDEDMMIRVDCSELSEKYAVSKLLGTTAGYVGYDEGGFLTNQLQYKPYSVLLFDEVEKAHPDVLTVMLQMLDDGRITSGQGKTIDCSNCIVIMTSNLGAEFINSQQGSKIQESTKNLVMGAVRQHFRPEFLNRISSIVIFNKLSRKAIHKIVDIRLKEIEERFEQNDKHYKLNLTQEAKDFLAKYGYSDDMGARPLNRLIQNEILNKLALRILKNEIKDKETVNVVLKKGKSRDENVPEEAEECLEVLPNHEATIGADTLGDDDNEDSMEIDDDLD
T3 sequence (P31539 whole entry N728A): as the sequence (P31539 whole entry T317A) above, with A317T, N728A counted along it
T2 sequence (P31539 whole entry A503V): as the sequence (P31539 whole entry T317A) above, with A317T, A503V counted along it
T1 sequence (P63284 whole entry): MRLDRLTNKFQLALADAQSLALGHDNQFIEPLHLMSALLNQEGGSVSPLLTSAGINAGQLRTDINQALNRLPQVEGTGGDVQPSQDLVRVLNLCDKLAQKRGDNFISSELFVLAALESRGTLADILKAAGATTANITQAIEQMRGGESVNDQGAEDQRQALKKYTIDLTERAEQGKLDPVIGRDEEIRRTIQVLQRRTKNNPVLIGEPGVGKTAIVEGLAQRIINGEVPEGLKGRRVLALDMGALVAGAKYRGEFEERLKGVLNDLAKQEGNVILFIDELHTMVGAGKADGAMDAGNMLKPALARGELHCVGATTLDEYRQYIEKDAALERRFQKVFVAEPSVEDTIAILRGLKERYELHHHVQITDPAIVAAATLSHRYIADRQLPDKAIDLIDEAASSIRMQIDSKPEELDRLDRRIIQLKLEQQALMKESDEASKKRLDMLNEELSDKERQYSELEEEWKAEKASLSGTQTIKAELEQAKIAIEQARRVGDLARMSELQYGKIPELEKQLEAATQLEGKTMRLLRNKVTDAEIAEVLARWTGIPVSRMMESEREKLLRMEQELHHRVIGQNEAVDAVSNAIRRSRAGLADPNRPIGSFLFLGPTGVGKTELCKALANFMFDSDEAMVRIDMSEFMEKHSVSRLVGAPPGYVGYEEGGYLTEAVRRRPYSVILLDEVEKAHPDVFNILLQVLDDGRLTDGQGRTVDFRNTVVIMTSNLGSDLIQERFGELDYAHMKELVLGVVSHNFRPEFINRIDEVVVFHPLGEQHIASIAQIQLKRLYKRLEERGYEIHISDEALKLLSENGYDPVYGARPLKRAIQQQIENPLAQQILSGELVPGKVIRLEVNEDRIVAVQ

Cc1ccc(C(=O)Nc2ccc(S(=O)(=O)O)c3cc(S(=O)(=O)O)cc(S(=O)(=O)O)c23)cc1NC(=O)c1cccc(NC(=O)Nc2cccc(C(=O)Nc3cc(C(=O)Nc4ccc(S(=O)(=O)O)c5cc(S(=O)(=O)O)cc(S(=O)(=O)O)c45)ccc3C)c2)c1 [Suramin]
Normalized Luciferase Refolding Activity ([1]; ClpB 1 µM hexamer, Suramin 100 µM, 90 min 25°C, ATP:ATPγS 1:1, Figure 5B): 0.16
Normalized Luciferase Refolding Activity ([1]; ClpB, Suramin 1 µM, Figure 5B): 1.02
Normalized Luciferase Refolding Activity ([1]; ClpB, Suramin 5 µM, Figure 5B): 1.82
Normalized Luciferase Refolding Activity ([1]; ClpB, Suramin 10 µM, Figure 5B): 2.23
Normalized Luciferase Refolding Activity ([1]; ClpB, Suramin 25 µM, Figure 5B): 1.39
Normalized Luciferase Refolding Activity ([1]; ClpB, Suramin 50 µM, Figure 5B): 1.03
ClpB refolding power retained ([1]; Suramin 50 µM): 100%
remaining activity at 100 µM ([1]; Suramin 100 µM, read-out: ClpB disaggregase activity remaining): 16%
Effect on ClpB luciferase reactivation ([1]; low concentrations of Suramin): increased the amount of luciferase ClpB was able to reactivate
Inhibitor concentration of maximal ATPase inhibition ([2]; Hsp104^A503V): 25 µM
activity at 25 µM ([2]; read-out: Hsp104^A503V ATPase activity relative to uninhibited): 18%
IC50 [3]: ~0.61 µM
Hsp104^A503V refolding activity ([3]; Suramin 1 µM, ATP alone): less than 50%
IC50 [4]: ~92.4 µM
Hsp104^N728A refolding activity ([4]; Suramin 1 µM): ~100%
Hsp104^N728A refolding activity ([4]; Suramin 50 µM): ~36%
Hsp104^T317A refolding activity ([5]; Suramin 1 µM): approximately 75%
Hsp104^T317A refolding activity ([5]; Suramin 50 µM): approximately 8%
IC50 ([5]; based on refolding data): ~20.5 µM
